Assay: Solubility in a mixture of water and glycerol
Type: physicochemical
Conditions: experimental studies, no figures given

Q: With `O=C(C1CCCCC1)N1CC(=O)N2CCc3ccccc3C2C1` (racemic) [praziquantel, (RS)-2-(Cyclohexylcarbonyl)-2,3,4,6,7,11b-hexahydro-1H-pyrazino[2,1-a]isochinoline-4-on] as the compound, how does the “solubility in a mixture of water and glycerol” value read?
A: high solubility

From patent US20230107039A1, “SOFT CHEWABLE FORMED BODY FOR THE ADMINISTRATION TO ANIMALS” (Bayer Animal Health GmbH, priority 2020, published 2023)
